Experimental data reported in PubChem BioAssay AID2305 (GlaxoSmithKline (GSK), 2010).

Each compound was assayed on P. falciparum 3D7 growth, pLDH absorbance (assay: P. falciparum 3D7 growth inhibition, dose response, strain 3D7 (AID 2305)).

Going from `COc1ccc2nccc([C@@H](O)CN3CCC(NC(=O)Cc4cc5ccccc5s4)CC3)c2c1` to `COc1ccc2nccc([C@@H](O)CN3CCC(NCc4nc5cc(F)ccc5o4)CC3)c2c1`, the IC50 falls from 910 nM to 150 nM (6.1-fold).

`C[C@@H](N=C(Nc1ccc(C#N)cc1O)Nc1ccccc1Cl)c1ccc(Br)cc1` and `COc1ccccc1NC(=O)c1cc(C(=O)c2cc(Cl)ccc2O)cn(-c2ccccc2OC)c1=O` are within 1.5-fold of each other in IC50: 750 nM for the first, 940 nM for the second.

Going from `CC(=NN=C(N)N)C(=O)Nc1ccc(Cl)c(Cl)c1` to `O=c1cc(NC[C@@H]2CCC[C@@H]2NCc2ccc(Cl)c(Cl)c2)[nH]c2ccccc12`, the IC50 rises from 170 nM to 600 nM (3.5-fold).

Going from `O=C(/C=C/c1ccc(Cl)c(Cl)c1)NC1CCC(CN2CCC(c3nc4ccc(O)cc4[nH]3)CC2)CC1` (configuration not stated) to `O=C(c1ccc(F)c(F)c1)N1CCOC(CCN2CCC(c3ccccc3)CC2)(c2ccc(Cl)c(Cl)c2)C1` (configuration not stated), the IC50 rises from 240 nM to 1040 nM (4.3-fold).

Compared with `Cc1c2ccncc2c(C)c2c1[nH]c1ccccc12`, `O=c1cc(NCCCNCc2cc3c(Cl)cccc3s2)[nH]c2ccccc12` is 1.7-fold lower in IC50: 800 nM for the first, 470 nM for the second. The second is the more potent here.

First: FC(F)(F)c1cccc(CNCC2CCN(Cc3ccc4c(c3)OCO4)CC2)c1
Second: COc1ccc2nccc(N3CCC(CCNCc4cc5c(cn4)OCCO5)CC3)c2n1
The IC50 of the first is 3.3-fold higher: 730 nM for the first, 220 nM for the second. The second is the more potent here.

First: Cc1nc2ccccn2c1C1(O)C(=O)Nc2c(Cl)cc(Cl)cc21 (configuration not stated)
Second: O=C(c1ccco1)N1CCN(c2nc(-c3ccc(Cl)cc3)nc3ccccc23)CC1
The IC50 of the first is 1.7-fold higher: 1590 nM for the first, 930 nM for the second. The second is the more potent here.

First: CC(C)c1ccc(O)cc1Nc1ccnc2ccc(C(F)(F)F)cc12
Second: FC(F)(F)c1ccc2nccc(NN=Cc3ccccc3)c2c1
The IC50 of the first is 1.7-fold lower: 680 nM for the first, 1170 nM for the second. The first is the more potent here.

`CCCCCCCCc1c(C)[nH]c(C)c(I)c1=O` and `CCN(CC)CCCCOc1ccc2c(c1)C(=O)c1cc(OCCCCN(CC)CC)ccc1-2` are within 1.5-fold of each other in IC50: 740 nM for the first, 760 nM for the second.

`Cc1cc(NC(=O)Nc2ccc(I)c(OCCN(C)C)c2)ccc1Br` and `COc1cc2c(cc1C(F)(F)F)N(C(=O)Nc1cccc(-c3ccc(CN(C)C)cc3)c1)CC2` are within 1.5-fold of each other in IC50: 620 nM for the first, 710 nM for the second.

`Cc1cc(F)ccc1-c1nc(Nc2ccncc2)c2ccn(C)c2n1` and `ON=C1CCc2cc(-c3nc(-c4cccc(OCCNCc5ccc(F)cc5)c4)[nH]c3-c3ccncc3)ccc21` are within 1.5-fold of each other in IC50: 940 nM for the first, 890 nM for the second.

First: Cc1cc(N[C@@H](Cc2ccccc2)C(=O)NCc2cccs2)nc(NCCc2ccccn2)n1
Second: NC1CCN(c2nc(NCCCc3ccc(O)cc3)nc(NCc3ccccc3-c3ccccc3)n2)CC1
The IC50 of the first is 1.9-fold higher: 1280 nM for the first, 680 nM for the second.

`COc1ccc(C)c(Nc2ccnc(Nc3cccc(-c4nc5ccccc5[nH]4)c3)n2)c1` and `Oc1cccc(Nc2ccnc3cc(-c4ccccn4)ccc23)c1` are within 1.5-fold of each other in IC50: 720 nM for the first, 740 nM for the second.

Compared with `COc1c(C2CCN(CCCCNC(=O)c3oc(-c4ccc(Cl)cc4)cc3CO)CC2)ccc2c1CCCC2`, `COc1ccc(C2CCN(CCCCNC(=O)c3ccc(NC(=O)c4ccc(Cl)cc4)cc3)CC2)c(OC)c1` is 1.5-fold higher in IC50: 370 nM for the first, 570 nM for the second. The first is the more potent here.

Going from `COc1ccc(OCC(=O)Nc2nc(-c3ccc(OC)cc3)c(C)s2)cc1` to `CC(C)CCN=C(N)Nc1ccc(OCCCOc2ccc(NC(N)=NCCC(C)C)cc2)cc1`, the IC50 falls from 1950 nM to 200 nM (9.8-fold). The second is the more potent here.

`COc1cccc(CCN(Cc2ccccc2-c2ccc(CNC3CC(C)(C)NC(C)(C)C3)cc2)C(=O)NC2CCCCC2)c1` and `O=S(=O)(NCCN1CCCC1)c1ccc(-c2ccc(CNCc3ccc(F)cc3)cc2)cc1` are within 1.5-fold of each other in IC50: 930 nM for the first, 790 nM for the second.

Going from `Cc1cc(N2CCCC2)nc(Nc2ccc(NC(=O)C(C)Oc3ccccc3)cc2)n1` (configuration not stated) to `O=C(CCN1CCCCC1)Nc1ccc(Nc2nccc(NCC(O)c3ccccc3)n2)cc1` (configuration not stated), the IC50 falls from 1140 nM to 720 nM (1.6-fold).

Compared with `O=[N+]([O-])c1cccc(Nc2nccc(-c3cnn4ncccc34)n2)c1`, `Cc1cc(OCCCN2CCC(NS(=O)(=O)c3cccc(Br)c3)C2)c2ccccc2n1` (configuration not stated) is 6.7-fold higher in IC50: 180 nM for the first, 1210 nM for the second.

Going from `CN(CCCNc1ccc(C(=O)Nc2ccc(C(F)(F)F)cc2)cc1[N+](=O)[O-])Cc1ccccc1` to `CCNc1cc(C(=O)N[C@@H](Cc2ccccc2)[C@H](O)CN[C@@H]2CCc3ccccc32)cc(N2CCCC2=O)c1`, the IC50 rises from 230 nM to 1020 nM (4.4-fold). The first is the more potent here.

First: CON(C)C(=O)[C@@H](CCCCNC(=O)OCc1ccccc1)NC(=O)OC(C)(C)C
Second: CC(C)[C@@H](NC(=O)NC1CCC(CCN2[C@@H]3CC[C@H]2CC(OC(=O)C(CO)c2ccccc2)C3)CC1)C(O)(c1ccccc1)c1ccccc1 (some centres not stated)
The IC50 of the first is 4.3-fold lower: 190 nM for the first, 810 nM for the second.

First: CC(C)c1sc(N2CCN(C)CC2)nc1C(=O)NCCc1ccc(Br)cc1
Second: Cc1cc(N2CCN(CC3CCN(C)CC3)CC2)nc(Nc2ccc(Br)cc2)n1
The IC50 of the first is 2.6-fold higher: 1130 nM for the first, 440 nM for the second.

`COc1ccc(CN2CCN(C(=O)c3cccs3)CC2)c(O)c1` and `CC(C)c1ccc(NC(=O)c2ccc(C(=O)NC3CCN(CC4CCCCC4)C3)cc2)cc1` (configuration not stated) are within 1.5-fold of each other in IC50: 840 nM for the first, 790 nM for the second.

Going from `CCn1c(Cc2ccccc2)nnc1SCC(=O)N1c2ccccc2Sc2ccccc21` to `O=S(=O)(NC1CCN(c2ccnc3ccccc23)C1)c1ccc(OC(F)(F)F)cc1` (configuration not stated), the IC50 rises from 590 nM to 1080 nM (1.8-fold).

`Cc1cc(N(C)C2CCN(C)C2)nc(Nc2ccc(Cl)cc2)n1` (configuration not stated) was tested, and the IC50 was 340 nM.
